The values that follow come from PubChem BioAssay AID292 (DTP/NCI, 2004).

Several values for one entry are separate records, joined by “and”; a condition that tells them apart may be missing. Identical values can stand only once. Toxic doses and inconclusive results are not listed.

In this assay the test system is B6C3F1 mice, ip Sarcoma M5076, median survival T/C. Kind of assay: NCI In Vivo Anticancer Drug Screen. Data for tumor model Sarcoma M5076 (intraperitoneal) in B6C3F1 mice. To be noted: endpoint: median survival time, higher = longer survival. The method, boiled down:
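The readout is a ratio of survival in drug-treated animals to survival in animals given vehicle alone, taken in mice bearing a transplanted tumour line.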

[1] abbreviates: dose: 25.0 mg/kg/injection, schedule: Q04DX004 (ip), vehicle: saline with Tween-80.
Where [2] appears, read: dose: 12.5 mg/kg/injection, schedule: Q04DX004 (ip), vehicle: Klucel (hydroxypropylcellulose) (HPC).
The mark [3] stands for this setting: dose: 50.0 mg/kg/injection, schedule: Q04DX004 (ip), vehicle: Klucel (hydroxypropylcellulose) (HPC).
[4] abbreviates: dose: 100.0 mg/kg/injection, schedule: Q04DX004 (ip), vehicle: Klucel (hydroxypropylcellulose) (HPC).
Setting [5] is: dose: 50.0 mg/kg/injection, schedule: Q04DX004 (ip), vehicle: saline with Tween-80.
Where [6] appears, read: dose: 200.0 mg/kg/injection, schedule: Q04DX004 (ip), vehicle: Klucel (hydroxypropylcellulose) (HPC).

For `COc1cc2cc(c1Cl)N(C)C(=O)C[C@H](OC(=O)[C@H](C)N(C)C(C)=O)[C@]1(C)O[C@H]1[C@H](C)[C@@H]1C[C@@](O)(NC(=O)O1)[C@H](OC)C=C/C=C(\C)C2`, the T/C is 101 % of control (dose: 18.75 micrograms/kg/injection, schedule: Q04DX004 (ip), vehicle: saline); 103 % of control and 119 % of control (dose: 37.5 micrograms/kg/injection, schedule: Q04DX004 (ip), vehicle: saline); 108 % of control and 217 % of control (dose: 37.5 micrograms/kg/injection, schedule: Q04DX005 (ip), vehicle: saline); 112 % of control (dose: 75.0 micrograms/kg/injection, schedule: Q04DX004 (ip), vehicle: saline); 119 % of control (dose: 75.0 micrograms/kg/injection, schedule: Q04DX005 (ip), vehicle: saline); 114 % of control (dose: 150.0 micrograms/kg/injection, schedule: Q04DX004 (ip), vehicle: saline). Besides, the T/C (dose: 300.0 micrograms/kg/injection, schedule: Q04DX004 (ip), vehicle: saline) is 114 % of control.

Consider `NC(C/[N+]([O-])=N/O)C(=O)O` (centres undefined), for which the T/C was 93 % of control (dose: 30.0 mg/kg/injection, schedule: Q04DX005 (ip), vehicle: alkali diluted with saline); 103 % of control (dose: 120.0 mg/kg/injection, schedule: Q04DX005 (ip), vehicle: alkali diluted with saline); 118 % of control (dose: 240.0 mg/kg/injection, schedule: Q04DX005 (ip), vehicle: alkali diluted with saline).

On to `O=C1CN2CCN3CC(=O)NC(=O)[C@H]3[C@H]2C(=O)N1`, for which the T/C by setting is: (dose: 28.13 mg/kg/injection, schedule: Q04DX004 (ip), vehicle: saline with Tween-80) 101 % of control; (dose: 56.25 mg/kg/injection, schedule: Q04DX004 (ip), vehicle: saline with Tween-80) 98 % of control; (dose: 112.5 mg/kg/injection, schedule: Q04DX004 (ip), vehicle: saline with Tween-80) 93 % of control; (dose: 225.0 mg/kg/injection, schedule: Q04DX004 (ip), vehicle: saline with Tween-80) 92 % of control; (dose: 450.0 mg/kg/injection, schedule: Q04DX004 (ip), vehicle: saline with Tween-80) 91 % of control.

In the case of `CO[C@@]12[C@@H]3N[C@@H]3CN1C1=C(C(=O)C(NCCc3ccccn3)=C(C)C1=O)[C@@H]2COC(N)=O`, the T/C reads like this: (dose: 3.2 mg/kg/injection, schedule: Q04DX004 (ip), vehicle: saline with Tween-80) 112 % of control; (dose: 5.4 mg/kg/injection, schedule: Q04DX004 (ip), vehicle: saline with Tween-80) 122 % of control; under setting [1], 172 % of control and 197 % of control; (dose: 42.0 mg/kg/injection, schedule: Q04DX004 (ip), vehicle: saline with Tween-80) 200 % of control; (dose: 69.0 mg/kg/injection, schedule: Q04DX004 (ip), vehicle: saline with Tween-80) 280 % of control.

Take `S=C1CCCCN1`: the T/C was 101 % of control (dose: 6.25 mg/kg/injection, schedule: Q04DX004 (ip), vehicle: distilled water + alcohol); 99 % of control (dose: 12.5 mg/kg/injection, schedule: Q04DX004 (ip), vehicle: distilled water + alcohol); 98 % of control and 103 % of control (dose: 25.0 mg/kg/injection, schedule: Q04DX004 (ip), vehicle: distilled water + alcohol); 92 % of control and 94 % of control and 100 % of control (dose: 50.0 mg/kg/injection, schedule: Q04DX004 (ip), vehicle: distilled water + alcohol); 88 % of control and 100 % of control (2×) (dose: 100.0 mg/kg/injection, schedule: Q04DX004 (ip), vehicle: distilled water + alcohol).

Regarding `CC(C)(C[NH-])C[NH-].[Cl][Pt+2][Cl]`, the T/C reads like this: (dose: 0.25 mg/kg/injection, schedule: Q04DX004 (ip), vehicle: water) 116 % of control; (dose: 1.0 mg/kg/injection, schedule: Q04DX004 (ip), vehicle: water) 157 % of control and 174 % of control; (dose: 2.0 mg/kg/injection, schedule: Q04DX004 (ip), vehicle: water) 181 % of control and 198 % of control; (dose: 4.0 mg/kg/injection, schedule: Q04DX004 (ip), vehicle: water) 90 % of control and 241 % of control.

For the molecule `NC(=S)N/N=C/c1cc(=O)c2cc(Cl)ccc2o1`, where the note is “dose: 75.0 mg/kg/injection, schedule: Q04DX004 (ip), vehicle: DMSO”, the T/C was 92 % of control.

As for `CN(C)CCOc1cccc2c1C(=O)c1ccccc1C2=O`, the T/C was 90 % of control (dose: 50.0 mg/kg/injection, schedule: Q04DX004 (ip), vehicle: water) and 97 % of control (dose: 100.0 mg/kg/injection, schedule: Q04DX004 (ip), vehicle: water).

Take `C=C1c2cccc(O)c2C(O)=C2C(=O)[C@]3(O)C(O)=C(C(N)=O)C(=O)[C@@H](N(C)C)[C@@H]3[C@@H](O)[C@H]12`: the T/C is, setting by setting: under setting [2], 105 % of control; (dose: 25.0 mg/kg/injection, schedule: Q04DX004 (ip), vehicle: Klucel (hydroxypropylcellulose) (HPC)) 105 % of control; under setting [3], 101 % of control; under setting [4], 102 % of control.

For `Cc1cc2cc3cc(C)c(N)cc3nc2cc1N`, the T/C by setting is: under setting [1], 110 % of control; under setting [5], 117 % of control; (dose: 100.0 mg/kg/injection, schedule: Q04DX004 (ip), vehicle: saline with Tween-80) 113 % of control.

`N=C(N)c1ccc(N=NNc2ccc(C(=N)N)cc2)cc1`: the T/C runs as follows: under setting [1], 96 % of control; under setting [5], 97 % of control.

Turning to `CC(=O)C1C(=O)C(=O)N(c2ccc(Cl)cc2)C1=O` (centres undefined), the T/C is 111 % of control under setting [3]; 103 % of control under setting [4]; 99 % of control under setting [6]; 93 % of control (dose: 400.0 mg/kg/injection, schedule: Q04DX004 (ip), vehicle: Klucel (hydroxypropylcellulose) (HPC)); 92 % of control (dose: 800.0 mg/kg/injection, schedule: Q04DX004 (ip), vehicle: Klucel (hydroxypropylcellulose) (HPC)).

As for `CC1=C(/C=C/C(C)=C/C=C/C(C)=C/C=O)C(C)(C)CCC1`, the T/C (dose: 75.0 mg/kg/injection, schedule: Q04DX004 (ip), vehicle: saline + alcohol) is 104 % of control and the T/C (dose: 150.0 mg/kg/injection, schedule: Q04DX004 (ip), vehicle: saline + alcohol) is 96 % of control.

`COc1ccc(-n2cc[n+](C)c2/C=N\O)cc1`: the T/C was 101 % of control (dose: 31.25 mg/kg/injection, schedule: Q04DX004 (ip), vehicle: saline with Tween-80); 94 % of control (dose: 62.5 mg/kg/injection, schedule: Q04DX004 (ip), vehicle: saline with Tween-80); 114 % of control (dose: 125.0 mg/kg/injection, schedule: Q04DX004 (ip), vehicle: saline with Tween-80).

In the case of `CC[C@@H](C)[C@H]([C@H](CC(=O)N1CCC[C@@H]1[C@@H](OC)[C@H](C)C(=O)N[C@H](Cc1ccccc1)c1nccs1)OC)N(C)C(=O)[C@H](NC(=O)[C@@H](C(C)C)N(C)C)C(C)C`, the T/C reads like this: (dose: 8.0 micrograms/kg/injection, schedule: Q04DX004 (ip), vehicle: saline + alcohol) 153 % of control; (dose: 36.0 micrograms/kg/injection, schedule: Q04DX004 (ip), vehicle: saline + alcohol) 153 % of control.

For `CCOP(=S)(OCC)OC(=O)C(C)SSC` (centres undefined) (tested in a mixture with another compound), the T/C reads like this: (dose: 37.5 mg/kg/injection, schedule: Q04DX004 (ip), vehicle: saline with Tween-80) 96 % of control; (dose: 75.0 mg/kg/injection, schedule: Q04DX004 (ip), vehicle: saline with Tween-80) 99 % of control; (dose: 150.0 mg/kg/injection, schedule: Q04DX004 (ip), vehicle: saline with Tween-80) 88 % of control.

With `COC1OC(COC(C)=O)C(OC(C)=O)C(OC(C)=O)[CH]1[Hg][O]C(C)=O` (centres undefined), the T/C by setting is: (dose: 6.25 mg/kg/injection, schedule: Q04DX004 (ip), vehicle: Klucel (hydroxypropylcellulose) (HPC)) 95 % of control; under setting [2], 96 % of control.

Consider `Cc1c2ccccc2cc2cccc[n+]12`, for which the T/C (dose: 10.0 mg/kg/injection, schedule: Q04DX004 (ip), vehicle: saline) was 100 % of control; the T/C (dose: 20.0 mg/kg/injection, schedule: Q04DX004 (ip), vehicle: saline) is 96 % of control; the T/C (dose: 40.0 mg/kg/injection, schedule: Q04DX004 (ip), vehicle: saline) is 96 % of control.

`CN(C)CN1C(=O)S/C(=C2\C(=O)N(CN(C)C)c3ccccc32)C1=O`: the T/C under setting [3] is 102 % of control, the T/C under setting [4] was 90 % of control and the T/C under setting [6] is 90 % of control.
